Assay results taken from US20250090545A1, “METHODS AND COMPOSITIONS FOR TREATMENT OF PERIPHERAL NEUROPATHIES” (UNIVERSITY OF MANITOBA, priority 2013, published 2025).
“Also recorded” adds a separate entry of the source.

How the values were obtained:
[1] = tested on: PGC-1α; assay: PGC-1α transcriptional activity, luciferase reporter in adult sensory neurons; type: cell-based, rat
Procedure: PGC-1α transcriptional activity was determined in dissociated adult sensory neurons derived from STZ-induced diabetic rats by transfection for two days with luciferase-based reporter plasmids by following the methods taught in the AMAXA® NUCLEOFECTOR® II Manual (www.amaxa.com; AMAX and NUCLEOFECTOR are registered trademarks of Amaxa GmBH Corp., Koln, Fed. Rep. Germany) and by Saleh et al. (2013, Ciliary neurotrophic factor activates NF-κB to enhance mitochondrial bioenergetics and prevent neuropathy in sensory neurons of streptozotocin-induced diabetic rodents. Neuropharmacology 65:65-75) (the luciferase-based reporter plasmids were a gift from Dr. Michael Czubryt, University of Manitoba).

[2] = tested on: AMP-activated protein kinase (AMPK); assay: AMPK phosphorylation (Western blot) in cultured adult sensory neurons; type: cell-based, rat; details: neurons from age-matched control rats
Procedure: Subsets of cultured adult sensory neurons derived from age-matched control rats or 3-5 month STZ-induced diabetic rats were treated with a 1.0 μM pirenzepine-HCl dosage. The first subset was processed immediately while the second, third and fourth subsets of the neurons from the control rats and the diabetic rats were processed after 15 min, after 30 min, and after 60 min respectively following treatment with pirenzepine. The cell cultures were lysed and then used to prepare Western blots which were then probed with antibodies against phosphorylated AMPK (P-AMPK), total AMPK (T-AMPK) and total ERK (T-ERK). […] Values are means±SEM, N=3/group. Statistical significance was analyzed using one-way ANOVA with Tukey's post-hoc test.

[3] = tested on: cultured adult rat sensory neurons; assay: Total neurite outgrowth in cultured adult sensory neurons; type: cell-based; details: for total neurite outgrowth: cultured adult sensory neurons from normal adult rodents
Description: The fundamental hypothesis is that blocking endogenous cholinergic constraint using a muscarinic receptor antagonist will promote re-growth of neurons in patients with established peripheral neuropathy. This occurs via activation of AMPK and PGC-1α and the subsequent augmentation of mitochondrial function. This pathway comprises a proximal step involving M1 receptor antagonist-dependent activation of CaMKKβ (or CaMKK2). This hypothesis is supported by extensive preclinical data using in vitro and in vivo model systems. […] A specific requirement for M1 receptor antagonism is confirmed by the increased neurite outgrowth from sensory neurons derived from M1R KO mice.
The highly specific M1 receptor antagonist, MT7 (muscarinic toxin 7), enhanced neurite outgrowth in cultured adult rat sensory neurons (FIGS. 9(A), 9(B), 10). The data in FIG. 10 are means±SEM of 9 replicate cultures. Significant differences were determined by one-way ANOVA with Dunnett's post-hoc test.

[4] = tested on: STZ-induced diabetic Swiss Webster mice; assay: Topical atropine (eye or paw) in STZ-induced diabetic Swiss Webster mice; type: in vivo, mouse; details: 5 days/wk, 12 weeks
Procedure: Groups of adult Swiss Webster mice were made diabetic with STZ and then treated 5 days/wk with atropine delivered topically to one eye (2% solution) or topically to one paw (2% gel) for 12 weeks. Measurements were made on both the treated and untreated hind paw. Indices of large motor fiber function (MNCV; FIG. 21) and sensory sensory fiber function (paw thermal latency; FIG. 22) were measured and compared to those of age-matched control mice that were treated in an equivalent manner. […] The data shown in FIGS. 21 and 22 are group means±SEM with N=6-10/group. Significant differences were determined by unpaired t-test to compare control and diabetic animals under each condition (vehicle, atropine to the eye, atropine to the foot).

[5] = tested on: adult sensory neurons from normal rats; assay: Neurite outgrowth of sensory neurons exposed to paclitaxel or oxaliplatin; type: cell-based, rat; details: 24 hours; paclitaxel 0.1 or 0.3 μM, oxaliplatin 3.0 μM
Procedure: Adult sensory neurons from normal rats were cultured for 24 hours in the presence of(A) paclitaxel (PX; 0.1 μM or 0.3 μM), or (B) oxaliplatin (OX; 3.0 μM). From time of plating some cultures were treated with 0.1, 1.0 or 10 μM pirenzepine (PZ). Levels of total neurite outgrowth were determined and presented as means±SEM, N=6-8/group. Significant differences were assessed in(A) by t-test, and in(B) by one-way ANOVA with Dunnett's post-hoc test.

[6] = tested on: STZ-induced diabetic Swiss Webster mice; assay: Systemic oxybutynin in STZ-induced diabetic Swiss Webster mice, thermal hypoalgesia; type: in vivo, mouse; details: 9 weeks after 8 weeks of untreated diabetes
[7] = tested on: db/db mice; assay: Topical oxybutynin in db/db mouse model of type 2 diabetes; type: in vivo
Procedure: The muscarinic receptor antagonist oxybutynin was tested for efficacy against a functional measure of sensory neuropathy in the db/db mouse model of type 2 diabetes (FIG. 15). Thermal latency was analyzed as taught by Calcutt et al. (2004, Prevention of sensory disorders in diabetic Sprague-Dawley rats by aldose reductase inhibition or treatment with ciliary neurotrophic factor. Diabetologia 47:718-24). […] Some diabetic mice were then treated with oxybutynin (Oxy: 2% in hydrogel) applied to the right paw for 20 min/day 5 days a week, while others were treated with hydrogel vehicle alone. […] Data are group mean±SEM of N=8-9/group.
IENF levels were quantified as taught by Beiswenger et al. (2008, Epidermal nerve fiber quantification in the assessment of diabetic neuropathy. Acta Histochem. 110:351-63). The data shown in FIG. 16(A) are group mean±SEM of N=6-8/group. Significant differences were determined with a oneway ANOVA followed by Dunnett's post-hoc test. […] After 8 weeks of topical oxybutynin treatment, the eyes were assessed using corneal confocal microscopy as taught by Chen et al. (2013, Repeated monitoring of corneal nerves by confocal microscopy as an index of peripheral neuropathy in type-1 diabetic rodents and the effects of topical insulin. J. Periph. Nerv. Syst. 18;306-315).

[8] = tested on: adult Swiss Webster mice; assay: Corneal nerve occupancy by confocal microscopy in normal mice given MT7 eye drops; type: in vivo, mouse; details: daily eye drops; day 11 vs day 2, p<0.05
Procedure: To further extend our investigation of the actions of muscarinic receptor antagonists on nerve growth, we treated normal mice with the M1 receptor-specific antagonist MT7 by daily delivery to the eyes for 11 days and used confocal microscopy to provide a non-invasive and therefore iterative assessment of corneal nerve density.
A group (n=8) of adult Swiss Webster mice received daily treatment with MT7, which was given by eye drops (20 μl volume) in saline. Nerve occupancies in the sub-basal nerve plexus (SBNP 1-5) and upper stromal (Stroma 1-10) regions of the cornea were measured on day 2 and day 11 of treatment (FIG. 23). […] Data are group means (N=8)±SEM.

[9] = molecular target: T1, M1 receptor (Homo sapiens, UniProt P11229); details: cited from earlier work
T1 sequence (P11229 1-460): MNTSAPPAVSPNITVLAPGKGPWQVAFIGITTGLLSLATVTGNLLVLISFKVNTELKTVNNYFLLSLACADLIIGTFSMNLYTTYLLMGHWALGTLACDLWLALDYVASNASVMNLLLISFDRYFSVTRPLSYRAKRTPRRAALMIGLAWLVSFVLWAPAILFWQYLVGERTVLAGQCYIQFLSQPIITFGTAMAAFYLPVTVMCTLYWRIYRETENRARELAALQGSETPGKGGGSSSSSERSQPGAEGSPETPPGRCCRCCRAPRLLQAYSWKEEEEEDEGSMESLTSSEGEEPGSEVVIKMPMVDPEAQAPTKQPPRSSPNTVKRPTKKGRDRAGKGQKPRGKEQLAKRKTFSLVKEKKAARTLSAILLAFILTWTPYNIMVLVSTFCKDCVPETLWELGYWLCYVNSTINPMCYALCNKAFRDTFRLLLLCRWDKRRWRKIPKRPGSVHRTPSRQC

[10] = tested on: cultured adult rat sensory neurons; type: cell-based; details: gp120 24 hours; not shown
Procedure: To further extend our investigation of the actions of muscarinic receptor antagonists on nerve growth, cultured adult rat sensory neurons were treated for 24 hours with recombinant gp120, an external coat protein of HIV that causes toxicity to sensory neurons in HIV neuropathy (FIG. 24). This toxicity leads to axon degeneration and neuronal cell death. Cultures were treated with 1 μM pirenzpeine and total neurite outgrowth determined. […] Values are means±SEM. n=6.

[11] = 2% solution topically to one eye
[12] = topical, 8 weeks, values not significantly different from controls

Q: With `c1cc(-c2cnn3cc(-c4ccc(OCCN5CCCCC5)cc4)cnc23)ccn1` [Compound C] as the molecule, how does the “effect on MT7 stimulation of PGC-1α transcription” value ([1]; 0.3μM co-treatment with MT7) read?
A: blocked

Q: With `O=C(O)c1ccc2c3c1cccc3c(=O)n1c3ccccc3nc21` [STO-609] as the molecule, how does the “effect on MT7-induced enhancement of AMPK phosphorylation” value ([2]; 1.0μM) read?
A: inhibited

Q: And the “effect on pirenzepine-induced enhancement of AMPK phosphorylation” value ([2]; 1.0μM)?
A: inhibited

Q: And the “effect on pirenzepine-induced neurite outgrowth” value ([3]; cultured adult rat sensory neurons)?
A: dose-dependently inhibited

Q: Which “large fiber MNCV” value ([4]; 2% gel topically to one paw) does the source give for `CN1[C@@H]2CC[C@H]1C[C@@H](OC(=O)C(CO)c1ccccc1)C2` (stereo partly drawn) [atropine] here?
A: not different to controls

Q: What about the “paw thermal hypoalgesia (paw thermal latency)” value ([4]; 2% gel topically to one paw) of the same molecule?
A: not different to controls

Q: And the “large fiber MNCV” value [4, 11]?
A: not different to controls

Q: And the “paw thermal hypoalgesia (paw thermal latency)” value [4, 11]?
A: not different to controls

Q: Which “neurite outgrowth of sensory neurons exposed in vitro to the chemotherapeutic” value [5] does the source give for `O=C1[O][Pt]2([NH][C@@H]3CCCC[C@H]3[NH]2)[O]C1=O` [oxaliplatin] here?
A: reduced neurite outgrowth

Q: What does the source list for `CCN(CC)CC#CCOC(=O)C(O)(c1ccccc1)C1CCCCC1` (stereo not drawn) [oxybutynin, 4-dicthylaminobut-2-ynyl-2-cyclohexyl-2-hydroxy-2-phenyl-ethanoate]?
A: total neurite outgrowth [3]: elevated; thermal hypoalgesia ([6]; 3 mg/kg s.c.): able to reverse; thermal hypoalgesia ([6]; 10 mg/kg s.c.): able to reverse; paw thermal hypoalgesia (thermal latency) ([7]; 2% in hydrogel to right paw 20 min/day, 5 days a week, 8 weeks, p<0.01 vs vehicle): reversed; time of treatment to reversal of thermal hypoalgesia ([7]; topical oxybutynin): 4-8 weeks; reduction in density of IENF in paw skin [7, 12]: attenuated; reduction in nerve fiber occupancy in the cornea [7, 12]: attenuated

B1: MT7: 64-66 amino acid protein derived from the African green mamba snake; most specific antagonist of the M1 receptor (protein, UniProt Q8QGR0 22-86, looked up)
Muscarinic toxin 7: LTCVKSNSIWFPTSEDCPDGQNLCFKRWQYISPRMYDFTRGCAATCPKAEYRDVINCCGTDKCNK
Q: Which results are given for B1?
A: transcription of PGC-1α ([1]; MT7 treatment, neurons from STZ-induced diabetic rats): activated; AMPK phosphorylation ([2]; MT7): enhancement; nerve occupancy in the sub-basal nerve plexus (SBNP 1-5) of the cornea [8]: increased significantly; nerve occupancy in the upper stromal (Stroma 1-10) region of the cornea [8]: increased significantly; concentrations at which it binds to an allosteric site on the M1 receptor ([9]; allosteric site): low nanomolar; selectivity for M1 receptors over M2-M5 [9]: 10,000 fold; level of protection from gp120 treatment [10]: approximately 50%; total neurite outgrowth [3]: enhanced; also recorded: dose-dependently elevated
